Publication PMC6364417, “Kinase inhibitor library screening identifies synergistic drug combinations effective in sensitive and resistant melanoma cells” (Journal of Experimental & Clinical Cancer Research : CR, 2019)

Tests used:
Experiment in all cases: Kinase inhibitor library screening, PrestoBlue cell viability, 1 or 10 μM, 72 h
[1] = tested on: A375-GP cells (Dabrafenib-resistant); details: for viability at 1 µM / viability at 10 µM: Homo sapiens, A-375, 72 h; for viability at 1 µM: read-out: cell viability, A375 GP, 1μΜ; for viability at 10 µM: read-out: cell viability, A375 GP, 10μΜ
Description: (§1) After 72 h of treatment, cell viability was assessed using the PrestoBlue Cell Viability Reagent (ThermoFisher Scientific). Measurements were performed with the CLARIOstar Monochromator microplate reader (BMG Labtech).
(§2) Kinase inhibitor library screening. […] Each cell line was treated in its sensitive form (parental), and also as 2 resistant derivatives, which were made resistant to either Vemurafenib (XP) or Dabrafenib (GP). Drugs were added at 2 different concentrations, 1 and 10 μM, for 72 h and cell viability was assessed using the PrestoBlue Cell Viability assay. Results are depicted as % viability compared to untreated cells. Each cell line was analyzed at least in duplicate. […] (XLSX 95 kb)

[2] = tested on: 501Mel-XP cells (Vemurafenib-resistant); details: 72 h; for viability at 1 µM / viability at 10 µM: Homo sapiens; for viability at 1 µM: read-out: cell viability, 501Mel XP, 1μΜ; for viability at 10 µM: read-out: cell viability, 501Mel XP, 10μΜ
Description: as §1, §2

IGR37 cells (parental) = details: for viability at 1 µM / viability at 10 µM: Homo sapiens, IGR-37, 72 h; for viability at 1 µM: read-out: cell viability, IGR37 Parental, 1μΜ; for viability at 10 µM: read-out: cell viability, IGR37 Parental, 10μΜ
Description: as §1, §2

[3] = tested on: IGR37-XP cells (Vemurafenib-resistant); details: for viability at 1 µM / viability at 10 µM: Homo sapiens, IGR-37, 72 h; for viability at 1 µM: read-out: cell viability, IGR37 XP, 1μΜ; for viability at 10 µM: read-out: cell viability, IGR37 XP, 10μΜ; for Cell viability in kinase inhibitor library screening, IGR37 XP, 10μΜ / Cell viability in kinase inhibitor library screening, IGR37 XP, 1μΜ: 72 h; for Cell viability in kinase inhibitor library screening, IGR37 XP, 1μΜ: in %
Description: as §1, §2

501Mel cells (parental) = details: 72 h; for viability at 1 µM / viability at 10 µM: Homo sapiens; for viability at 1 µM: read-out: cell viability, 501Mel Parental, 1μΜ; for viability at 10 µM: read-out: cell viability, 501Mel Parental, 10μΜ
Description: as §1, §2

[4] = tested on: IGR37-GP cells (Dabrafenib-resistant); details: for viability at 1 µM / viability at 10 µM: Homo sapiens, IGR-37, 72 h; for viability at 1 µM: read-out: cell viability, IGR37 GP, 1μΜ; for viability at 10 µM: read-out: cell viability, IGR37 GP, 10μΜ
Description: as §1, §2

[5] = tested on: 501Mel-GP cells (Dabrafenib-resistant); details: 72 h; for viability at 1 µM / viability at 10 µM: Homo sapiens; for viability at 1 µM: read-out: cell viability, 501Mel GP, 1μΜ; for viability at 10 µM: read-out: cell viability, 501Mel GP, 10μΜ
Description: as §1, §2

A375 cells (parental) = details: for viability at 1 µM / viability at 10 µM: Homo sapiens, A-375, 72 h; for viability at 1 µM: read-out: cell viability, A375 Parental, 1μΜ; for viability at 10 µM: read-out: cell viability, A375 Parental, 10μΜ; for Cell viability in kinase inhibitor library screening, A375 Parental, 10μΜ / Cell viability in kinase inhibitor library screening, A375 Parental, 1μΜ: 72 h
Description: as §1, §2

[6] = tested on: A375-XP cells (Vemurafenib-resistant); details: for viability at 1 µM / viability at 10 µM: Homo sapiens, A-375, 72 h; for viability at 1 µM: read-out: cell viability, A375 XP, 1μΜ; for viability at 10 µM: read-out: cell viability, A375 XP, 10μΜ; for Cell viability in kinase inhibitor library screening, A375 XP, 1μΜ / Cell viability in kinase inhibitor library screening, A375 XP, 10μΜ: 72 h
Description: as §1, §2

SMILES	viability at 1 µM [1]	viability at 10 µM [1]	viability at 1 µM [2]	viability at 10 µM [2]	viability at 1 µM (IGR37 cells (parental))	viability at 10 µM (IGR37 cells (parental))	viability at 1 µM [3]	viability at 10 µM [3]	viability at 1 µM (501Mel cells (parental))	viability at 10 µM (501Mel cells (parental))	viability at 1 µM [4]	viability at 10 µM [4]	viability at 1 µM [5]	viability at 10 µM [5]	viability at 1 µM (A375 cells (parental))	viability at 10 µM (A375 cells (parental))	viability at 1 µM [6]	viability at 10 µM [6]	Cell viability in kinase inhibitor library screening, A375 GP, 10μΜ ([1]; A375 GP, 72 h)	Cell viability in kinase inhibitor library screening, 501Mel XP, 10μΜ ([2]; 501Mel XP, in %)	further results
C[C@@H]1COC(Nc2ccc3ncnc(Nc4ccc(OCc5nccs5)c(Cl)c4)c3c2)=N1 [ARRY334543]	101%	83.2%	118%	57.2%	102%	85.9%	71.6%	11.7%	97.9%	87.3%	89.4%	33%	101%	86.4%	103%	89.3%	107%	85.8%			
O=C(NC[C@H](O)CO)c1ccncc1Nc1ccc(I)cc1F [AS703026]	18.8%	15.8%	79.8%	56%	33.3%	35.4%	52.7%	18.8%	50.1%	57.6%	77%	59.4%	95.8%	78.7%	18.5%	19.6%	15.5%	9.6%			
O=C1NC(=O)/C(=C/c2ccc(-c3ccc(F)cc3O)o2)S1 [AS-252424]																			90.3	84.7	Cell viability in kinase inhibitor library screening, A375 GP, 1μΜ ([1]; A375 GP, 1μΜ, 72 h): 107.9; Cell viability in kinase inhibitor library screening, 501Mel XP, 1μΜ ([2]; 501Mel XP, 1μΜ, in %): 109.3; Cell viability in kinase inhibitor library screening, IGR37 Parental, 1μΜ (IGR37 cells (parental); IGR37 Parental, 1μΜ, 72 h, in %): 103.0; Cell viability in kinase inhibitor library screening, IGR37 Parental, 10μΜ (IGR37 cells (parental); IGR37 Parental, 72 h, in %): 94.5; Cell viability in kinase inhibitor library screening, IGR37 XP, 10μΜ [3]: 42.3%; Cell viability in kinase inhibitor library screening, IGR37 XP, 1μΜ [3]: 93.7; Cell viability in kinase inhibitor library screening, 501Mel Parental, 1μΜ (501Mel cells (parental); 501Mel Parental, 1μΜ, in %): 112.3; Cell viability in kinase inhibitor library screening, 501Mel Parental, 10μΜ (501Mel cells (parental); 501Mel Parental, in %): 97.9; Cell viability in kinase inhibitor library screening, IGR37 GP, 10μΜ ([4]; IGR37 GP, 72 h): 75.1%; Cell viability in kinase inhibitor library screening, 501Mel GP, 1μΜ ([5]; 501Mel GP, 1μΜ, in %): 105.9; Cell viability in kinase inhibitor library screening, 501Mel GP, 10μΜ ([5]; 501Mel GP, in %): 85.7; Cell viability in kinase inhibitor library screening, A375 Parental, 10μΜ (A375 cells (parental)): 82.9; Cell viability in kinase inhibitor library screening, A375 Parental, 1μΜ (A375 cells (parental)): 107.2; Cell viability in kinase inhibitor library screening, A375 XP, 1μΜ [6]: 115.1; Cell viability in kinase inhibitor library screening, A375 XP, 10μΜ [6]: 96.7
O=C1NC(=O)/C(=C/c2ccc3c(c2)OC(F)(F)O3)S1 [AS-604850]																			98.8	90.1	Cell viability in kinase inhibitor library screening, IGR37 Parental, 10μΜ (IGR37 cells (parental); IGR37 Parental, 72 h, in %): 108.6; Cell viability in kinase inhibitor library screening, IGR37 XP, 10μΜ [3]: 80.4%; Cell viability in kinase inhibitor library screening, IGR37 XP, 1μΜ [3]: 91.9; Cell viability in kinase inhibitor library screening, 501Mel Parental, 10μΜ (501Mel cells (parental); 501Mel Parental, in %): 104.4; Cell viability in kinase inhibitor library screening, IGR37 GP, 10μΜ ([4]; IGR37 GP, 72 h): 98%; Cell viability in kinase inhibitor library screening, IGR37 GP, 1μΜ ([4]; IGR37 GP, 1μΜ, 72 h, in %): 103.0; Cell viability in kinase inhibitor library screening, 501Mel GP, 10μΜ ([5]; 501Mel GP, in %): 91.8; Cell viability in kinase inhibitor library screening, A375 Parental, 10μΜ (A375 cells (parental)): 95.5; Cell viability in kinase inhibitor library screening, A375 Parental, 1μΜ (A375 cells (parental)): 104.7; Cell viability in kinase inhibitor library screening, A375 XP, 1μΜ [6]: 109.0; Cell viability in kinase inhibitor library screening, A375 XP, 10μΜ [6]: 106.1
